Drawing on patent US20240360135A1, “IMIDAZO[1,2-B]PYRIDAZINYL COMPOUNDS AND USES THEREOF” (Sumitomo Pharma Oncology, Inc., priority 2021, published 2024), this text covers IC50, epidermal thickening and vascularization for seven molecules.

pIC50: −log10 of the molar value.

Usually pIC50 stands for the IC50 on a negative log10 scale, so that one unit is a factor of ten. The term IC50 denotes the concentration that gives 50% inhibition.

One experiment addresses T1, PIM3 (Homo sapiens, UniProt Q86V86).
T1 construct: purchased Millipore 14-738
As to the kind of experiment: RBC HotSpot kinase inhibition assay, PIM3. The experiment is classed as biochemical. The method, then: (§1) Reagents. Base Reaction Buffer: 20 mM Hepes (pH 7.5), 10 mM MgCl2, 1 mM EGTA, 0.01% Brij35, 0.02 mg/ml BSA, 0.1 mM Na3VO4, 2 mM DTT, 1% DMSO. The following kinases were used in the assay at the indicated concentrations:
(§2) The following substrates were used in combination with the indicated kinases in the assay at the indicated concentration:
(§3) No cofactors were added to any of the reactions.
(§4) • 1. Prepared substrate in freshly prepared Reaction Buffer. • 2. Delivered kinase into the substrate solution and gently mixed. • 3. Delivered test compound in 100% DMSO into the kinase reaction mixture by Acoustic technology (Echo550; nanoliter range), incubated for 20 minutes at room temperature. • 4. Delivered ^33P-ATP into the reaction mixture to initiate the reaction. • 5. Incubated for 2 hours at room temperature. • 6. Detected kinase activity by P81 filter-binding method.
(§5) The results of the RBC HotSpot™ kinase assay are set forth in Table 1, wherein “A” indicates an IC50<10 nM, “B” indicates an IC50 wherein 10 nM≤IC50≤100 nM, and “C” indicates an IC50>100 nM.

In a further experiment the target is T2, PIM2 (Homo sapiens, UniProt Q9P1W9).
T2 construct: purchased Invitrogen PR6347B
T2 sequence (Q9P1W9 whole entry): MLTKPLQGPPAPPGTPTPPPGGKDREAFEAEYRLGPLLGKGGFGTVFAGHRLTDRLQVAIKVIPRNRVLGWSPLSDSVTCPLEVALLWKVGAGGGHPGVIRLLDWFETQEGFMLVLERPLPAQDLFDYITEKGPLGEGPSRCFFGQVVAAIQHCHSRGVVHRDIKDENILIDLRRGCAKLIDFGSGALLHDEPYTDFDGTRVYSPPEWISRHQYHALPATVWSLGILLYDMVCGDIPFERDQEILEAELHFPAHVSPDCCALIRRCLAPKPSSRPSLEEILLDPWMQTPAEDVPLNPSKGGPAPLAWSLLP
The experiment in a line: RBC HotSpot kinase inhibition assay, PIM2. Format: biochemical. The method, then:
as §1, §2, §3, §4, §5

The target in a further experiment is T3, PIM1 (Homo sapiens, UniProt P11309).
T3 construct: purchased Invitrogen PV3503
T3 sequence (P11309 whole entry): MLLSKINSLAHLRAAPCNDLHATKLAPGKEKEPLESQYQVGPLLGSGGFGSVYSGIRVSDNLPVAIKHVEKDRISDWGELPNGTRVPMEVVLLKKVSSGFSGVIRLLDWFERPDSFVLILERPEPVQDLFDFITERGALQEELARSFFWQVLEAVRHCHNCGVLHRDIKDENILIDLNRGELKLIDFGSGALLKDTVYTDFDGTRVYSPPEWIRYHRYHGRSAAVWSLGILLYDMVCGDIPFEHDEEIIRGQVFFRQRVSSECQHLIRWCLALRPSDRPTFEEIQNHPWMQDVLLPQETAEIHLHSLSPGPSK
The experiment in a line: RBC HotSpot kinase inhibition assay, PIM1. Format: biochemical. The method, then:
as §1, §2, §3, §4, §5

The test system of the next experiment is A549 cells. The experiment in a line: Wound healing assay in A549 cells with TGF-β. To be noted: Homo sapiens; wound healing, A549, 5 ng/ml TGF-β, 24 h; read-out: IC50 (μM) 24 h. Format: cell-based. From the text:
Overview. Epithelial to mesenchymal transition (EMT) is used to describe epithelial cells losing their cell to cell adhesion and polarity while gaining migratory and invasive properties. The process of EMT is required for normal embryonic development and wound healing, but has also been implicated in fibrosis. In humans, TGF-β signaling is the main driver of EMT, and inhibiting this pathway may be beneficial in various diseases such as fibrosis. A wound healing assay was used to study cell migration and cell-cell interaction, and probe the EMT properties of lung epithelial cells (A549) in presence of Compound 2 or Compound 4.
Procedure. A549 cells (ATCC, CCL-185) were seeded into the ImageLock plate (Essen Bioscience) at 2×10^4 cells/well in 100 μL of complete growth media. Cells were incubated overnight at 37° C., 5% CO2. The next day, cells were washed with 1×PBS and Compound 2, Compound 4, DMSO control (±TGF-β) or galunisertib (TGF-β inhibitor used as positive control) was added to the cells in a serum-free F12K media (0.2% DMSO final, 10 μM starting concentration, 3-fold dilution, 8-doses) in presence of 5 ng/ml TGF-β. Cells were incubated for 48 hours (until they reached confluency) at 37° C., 5% CO2. Wounds were simultaneously created using a WoundMaker™ (Essen Bioscience). Debris and non-attached cells were removed by gently washing once with F12K.
Test compound or control compound and TGF-β were added to the cells in F12K+10% FBS as previously described. The ImageLock plate was put into IncuCyteS3 instrument installed inside a 5% CO2 incubator. The plate was allowed to equilibrate in the IncuCyteS3 instrument for 15 minutes prior to scheduling the first scan and data recording. The plate was incubated for 72 hours at 37° C., and wound closure was recorded in real time with the IncuCyte S3 imaging system. Percentage of relative wound density was quantitatively calculated by the IncuCyte software.

The test system of the next experiment is mouse psoriasis models. The settings on record: cited from earlier work.

In the case of `CCc1cc(-c2cnc3ccc(NC45CCC(O)(CC4)C5)nn23)n[nH]1` [Compound 7, 4-((3-(5-ethyl-1H-pyrazol-3-yl)imidazo[1,2-b]pyridazin-6-yl)amino)bicyclo[2.2.1]heptan-1-ol], the pIC50 was 7.00 to 8.00 on PIM3, under 7.00 at PIM2 and 7.00 to 8.00 at PIM1.
Turning to `Cc1cccc(-c2nn3c(c2-c2ccnc4ccc(C(N)=O)cc24)CCC3)n1` [Galunisertib, galunisertib, reference compound], the IC50 in the experiment on A549 cells is over 10 µM.
Take `CN1CCC(CNc2ccc3ncc(-c4cccc(OC(F)(F)F)c4)n3n2)CC1` [SGI-1776]: in the experiment on mouse psoriasis models, the epidermal thickening entry is recorded as “partial reduction” and the vascularization entry was “partial reduction”.
On to `CCc1cc(-c2cnc3ccc(NC45CCC(C(C)(C)O)(CC4)CC5)nn23)n[nH]1` [Compound 6, 2-(4-((3-(5-ethyl-1H-pyrazol-3-yl)imidazo[1,2-b]pyridazin-6-yl)amino)bicyclo[2.2.2]octan-1-yl)propan-2-ol], for which the pIC50 on PIM3 is over 8.00; at PIM2, under 7.00; on PIM1, over 8.00.
On to `Cc1cc(-c2cnc3ccc(NC45CCC(O)(CC4)C5)nn23)n[nH]1` [Compound 1, 4-((3-(5-methyl-1H-pyrazol-3-yl)imidazo[1,2-b]pyridazin-6-yl)amino)bicyclo[2.2.1]heptan-1-ol], for which the pIC50 at PIM3, at PIM2 and on PIM1 was under 7.00 in each case.
For the molecule `OC12CCC(Nc3ccc4ncc(-c5cc(C6CC6)[nH]n5)n4n3)(CC1)C2` [Compound 5, 4-((3-(5-cyclopropyl-1H-pyrazol-3-yl)imidazo[1,2-b]pyridazin-6-yl)amino)bicyclo[2.2.1]heptan-1-ol], the pIC50 at PIM3 is 7.00 to 8.00; on PIM2, under 7.00; on PIM1 it was 7.00 to 8.00.
Consider `CCc1cc(-c2cnc3ccc(NC45CCC(O)(CC4)C5)nn23)c[nH]1` [Compound 3, 4-((3-(5-ethyl-1H-pyrrol-3-yl)imidazo[1,2-b]pyridazin-6-yl)amino)bicyclo[2.2.1]heptan-1-ol], for which the negative logarithm of the IC50 (pIC50) on PIM3 is 7.00 to 8.00; at PIM2, under 7.00; on PIM1, 7.00 to 8.00.
